Changes are numbered by the printed parent chain.
Columns and labels:
Details in all cases: pH 7.5
[1] = molecular target: T1, Tyrosyl-DNA phosphodiesterase 2 (Mus musculus, UniProt Q9JJX7); assay: Recombinant TDP2 Assay
T1 sequence (Q9JJX7 whole entry): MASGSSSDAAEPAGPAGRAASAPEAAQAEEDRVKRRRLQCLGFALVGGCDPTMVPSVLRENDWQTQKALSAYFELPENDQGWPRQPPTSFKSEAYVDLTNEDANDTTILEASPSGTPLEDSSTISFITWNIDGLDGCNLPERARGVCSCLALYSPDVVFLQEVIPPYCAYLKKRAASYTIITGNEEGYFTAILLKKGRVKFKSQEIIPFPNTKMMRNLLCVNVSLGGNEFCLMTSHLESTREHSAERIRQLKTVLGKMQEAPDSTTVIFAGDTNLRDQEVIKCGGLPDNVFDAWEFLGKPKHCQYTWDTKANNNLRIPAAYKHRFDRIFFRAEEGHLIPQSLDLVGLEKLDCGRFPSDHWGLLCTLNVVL
Procedure: (§1) TDP2 reactions were carried out as described previously23 with the following modifications.

[2] = molecular target: T2, Tyrosyl-DNA phosphodiesterase 2 [E242G,S244A,Q278R,I281T,K282R,R316G,P318T,Y321CH323L] (Mus musculus, UniProt Q9JJX7, E242G/I281T/K282R/P318T/Q278R/R316G/S244A/Y321CH323L); assay: Recombinant TDP2 Assay
T2 sequence (Q9JJX7 whole entry): T1 sequence (Q9JJX7 whole entry) with E242G, S244A, Q278R, I281T, K282R, R316G, P318T, Y321C, H323L
Procedure: as §1

[3] = molecular target: Tyrosyl-DNA phosphodiesterase 2 [E242G,S244A,Q278R,I281T,K282R,R316G,P318T,Y321C] (Mus musculus, UniProt Q9JJX7, E242G/I281T/K282R/P318T/Q278R/R316G/S244A/Y321C); assay: Recombinant TDP2 Assay
Sequence of Tyrosyl-DNA phosphodiesterase 2 [E242G,S244A,Q278R,I281T,K282R,R316G,P318T,Y321C] (Q9JJX7 whole entry E242G/S244A/Q278R/I281T/K282R/R316G/P318T/Y321C): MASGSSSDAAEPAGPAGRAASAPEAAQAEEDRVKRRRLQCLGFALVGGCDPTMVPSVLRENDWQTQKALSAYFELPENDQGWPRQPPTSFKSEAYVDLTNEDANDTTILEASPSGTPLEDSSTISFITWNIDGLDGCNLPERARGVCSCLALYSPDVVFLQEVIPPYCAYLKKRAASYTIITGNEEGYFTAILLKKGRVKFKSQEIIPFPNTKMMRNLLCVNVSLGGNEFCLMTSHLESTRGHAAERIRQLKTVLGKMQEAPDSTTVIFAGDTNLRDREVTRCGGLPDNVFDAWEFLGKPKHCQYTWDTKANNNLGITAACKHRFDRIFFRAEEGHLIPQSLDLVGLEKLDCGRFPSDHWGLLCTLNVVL
Procedure: as §1

[4] = molecular target: T3, Tyrosyl-DNA phosphodiesterase 2 (Homo sapiens, UniProt O95551); assay: TDP2 Assays with Whole Cell Extracts
T3 sequence (O95551 whole entry): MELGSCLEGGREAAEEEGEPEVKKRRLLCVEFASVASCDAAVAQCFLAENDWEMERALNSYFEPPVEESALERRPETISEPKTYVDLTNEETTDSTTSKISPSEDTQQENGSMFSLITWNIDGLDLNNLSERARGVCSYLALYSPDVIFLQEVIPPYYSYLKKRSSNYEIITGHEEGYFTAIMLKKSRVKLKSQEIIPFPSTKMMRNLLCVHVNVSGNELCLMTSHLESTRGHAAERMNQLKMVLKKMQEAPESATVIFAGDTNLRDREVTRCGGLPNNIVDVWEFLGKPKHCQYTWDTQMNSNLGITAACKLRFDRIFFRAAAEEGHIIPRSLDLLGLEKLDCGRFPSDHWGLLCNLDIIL
Procedure: Cell pellets were then resuspended in 100 uL of CelLytic M cell lysis reagent (SIGMA-Aldrich C2978). After 15 min on ice, lysates were centrifuged at 12 000g for 10 min, and supernatants were transferred to a new tube. Protein concentrations were determined using a Nanodrop spectrophotometer (Invitrogen), and whole cell extracts were stored at -80 °C. […] Reactions were terminated and samples analyzed.

[5] = molecular target: T3, Tyrosyl-DNA phosphodiesterase 2; assay: Recombinant TDP2 Assay
Procedure: as §1

SMILES | IC50 [1] [µM] | IC50 [2] [µM] | IC50 [3] [µM] | IC50 [4] [µM] | IC50 [5] [µM]
N#Cc1ccc2cc3c(=O)[nH]c(=O)nc-3n(-c3ccc(O)cc3)c2c1 | > 111 | 0.17 | 1.1 | – | –
O=c1nc2n(-c3ccc(O)cc3)c3cc(Cl)ccc3cc-2c(=O)[nH]1 | > 111 | 4 | 35 | 2.3 | 3.9
